Usually IC50 stands for the concentration needed to halve the response being measured. Lower therefore signals inhibition by little substance.

Consider two compounds from PMC2193175 (The Journal of Experimental Medicine, 2000).

Where two headings read alike, the source gives them in different places.

Assay [1] has as its target T1, cysteine-rich domain of the murine macrophage mannose receptor (Cys-MR) (Mus musculus, UniProt Q61830).
T1 sequence (Q61830 20-154): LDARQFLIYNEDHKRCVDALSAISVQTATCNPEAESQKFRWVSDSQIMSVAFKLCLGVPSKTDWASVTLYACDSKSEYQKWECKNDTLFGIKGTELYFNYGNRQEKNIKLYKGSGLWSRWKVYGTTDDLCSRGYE
Kind of assay: microwell inhibition of Cys-MR-Fc binding to immobilized human lutropin.

Assay [2] deals with T1, cysteine-rich domain of the murine macrophage mannose receptor (Cys-MR). The assay is described as above. The source holds these as a separate data set.

The compound `CC(=O)N[C@H]1C(O)O[C@H](CO)[C@H](OS(=O)(=O)O)[C@@H]1O` (some centres unmarked) [4-sulfated N-acetylgalactosamine] returned an IC50 in assay [1] of 180 µM.
As to `CC(=O)N[C@H]1C(O)O[C@H](COS(=O)(=O)O)[C@H](O)[C@@H]1O` (some centres unmarked) [6-sulfated N-acetylgalactosamine], in assay [2], the IC50 worked out at 1300 µM.
